What was measured:
[1] = test system: black and non-black patients; test: Dose-response evaluations: travoprost concentration and IOP response in black and non-black patients; format: in vivo, human
From the text: Dose-response studies were undertaken to evaluate the relationship between travoprost and IOP response in black and non-black patients. […] FIG. 1 depicts the relationship between log concentration and IOP for black patients versus non-black patients. For black patients, IOP went from approximately 28 mmHg at a concentration of 0.00009% travoprost to approximately 18.5 mmHg at 0.004% travoprost. For non-black patients, IOP went from approximately 23 mmHg at 0.00009% travoprost to approximately 18 mmHg at 0.004% travoprost. FIG. 2 depicts the relationship between log concentration and IOP change. IOP change went from approximately −1 mmHg to approximately −7.75 mmHg for black patients and from approximately −3.25 mmHg to approximately −7.25 mmHg for non-black patients. FIGS. 1 and 2 depict a comparison of IOP or IOP change to log concentration to illustrate the significance of the dose-response difference between the two groups. FIGS. 3 and 4 depict the same relationships using actual concentrations.

[2] = test system: patients with open-angle glaucoma or ocular hypertension; test: Clinical studies of travoprost (six, nine and twelve month studies pooled): IOP in black v. non-black patients; format: in vivo, human; details: for Mean IOP (overall) / IOP change from baseline: combined over visit and time of day; for Mean IOP (overall): pooled; for IOP change from baseline: three studies pooled, intent-to-treat
Protocol: The ability of travoprost to lower IOP was evaluated in three separate clinical trials, each involving the evaluation of both a low (0.0015%) and a high (0.004%) concentration composition. The studies differed in length, one lasting six months (hereinafter “six month study”), one lasting nine months (hereinafter “nine month study”) and one lasting twelve months (hereinafter “twelve month study”). The twelve month study was a triple-masked, parallel group, primary therapy study of the safety and efficacy of travoprost 0.0015% and travoprost 0.004% compared to timolol 0.5% and latanoprost 0.005% in patients with open-angle glaucoma or ocular hypertension. The term triple-masked is synonymous with the ICH E3 definition of double-blind. Patients of any race and either sex with open-angle glaucoma (with or without dispersion or pseudoexfoliation component) or ocular hypertension were qualified to participate in the studies. Pursuant to the study protocol, one group received travoprost 0.0015% topical ocular solution and dropped one drop once-daily in each eye at 8:00 p.m. A second group received travoprost 0.004% topical ocular solution and dropped one drop, once-daily in each eye at 8:00 p.m. A third group received vehicle only (placebo) and dropped one drop, once-daily in each eye at 8:00 a.m. A fourth group received timolol 0.5% topical ocular solution and dropped one drop, twice-daily in each eye at 8:00 a.m. and 8:00 p.m. A fifth group received latanoprost 0.005% topical ocular solution and dropped one drop, once-daily in each eye at 8:00 p.m. For evaluation purposes, the primary efficacy variable was mean intraocular pressure (IOP) in patient's worse eye. Safety was based on ocular and systemic parameters including hyperemia, flare, iris color, visual acuity, slit-lamp examinations, endothelial cell density, pachymetry, blood pressure and pulse, laboratory assessments, dilated fundus examinations, automated perimetry and adverse events. Repeated measures analysis of variance was used to test differences among treatment groups and to calculate 95% confidence limits about the differences between groups. The six month study was a triple-masked, parallel group, primary therapy study of the safety and efficacy of travoprost 0.0015% and travoprost 0.004% compared to timolol 0.5% in patients with open-angle glaucoma or ocular hypertension. The term triple-masked is synonymous with the ICH E3 definition of double-blind. Patients of any race and either sex with open-angle glaucoma (with or without dispersion or pseudoexfoliation component) or ocular hypertension were qualified to participate in the studies. Pursuant to the study protocol, one group received travoprost 0.0015% topical ocular solution and dropped one drop once-daily in each eye at 8:00 p.m. A second group received travoprost 0.004% topical ocular solution and dropped one drop, once-daily in each eye at 8:00 p.m. A third group received vehicle only (placebo) and dropped one drop, once-daily in each eye at 8:00 a.m. A fourth group received timolol 0.5% topical ocular solution and dropped one drop, twice-daily in each eye at 8:00 a.m. and 8:00 p.m. For evaluation purposes, the primary efficacy variable was mean intraocular pressure (IOP) in patient's worse eye. Safety was based on ocular and systemic parameters including hyperemia, aqueous cells and flare, iris pigmentation, visual acuity, slit-lamp biomicroscopy, blood pressure and pulse, laboratory assessments, dilated fundus examinations, automated perimetry and adverse events. Repeated measures analysis of variance was used to test differences among treatment groups and to calculate 95% confidence limits about the differences between groups. The nine month study was a triple-masked, parallel group, primary therapy study of the safety and efficacy of travoprost 0.0015% and travoprost 0.004% compared to timolol 0.5% and latanoprost 0.005% in patients with open-angle glaucoma or ocular hypertension. […]

[3] = travoprost 0.0015%, black patients
[4] = travoprost 0.0015%, non-black patients
[5] = travoprost 0.004%, black patients
[6] = travoprost 0.004%, non-black patients

CC(C)OC(=O)CCC/C=C\C[C@@H]1[C@@H](/C=C/[C@@H](O)COc2cccc(C(F)(F)F)c2)[C@H](O)C[C@@H]1O [Travoprost, travoprost]
IOP (FIG. 1) ([1]; 0.00009% travoprost, black patients): approximately 28 mmHg | IOP (FIG. 1) ([1]; 0.00009% travoprost, non-black patients): approximately 23 mmHg | IOP (FIG. 1) ([1]; 0.004% travoprost, black patients): approximately 18.5 mmHg | IOP (FIG. 1) ([1]; 0.004% travoprost, non-black patients): approximately 18 mmHg | Dose-response based on comparison slopes ([1]; black patients compared with non-black patients): much more pronounced dose-response | IOP change (FIG. 2) ([1]; black patients, high end of concentration range ('to')): approximately −7.75 mmHg | IOP change (FIG. 2) ([1]; black patients, low end of concentration range ('from')): approximately −1 mmHg | Mean IOP versus dose ([1]; both race subgroups): reduced significantly with increasing dose | IOP change (FIG. 2) ([1]; non-black patients, high end of concentration range ('to')): approximately −7.25 mmHg | IOP change (FIG. 2) ([1]; non-black patients, low end of concentration range ('from')): approximately −3.25 mmHg | Further IOP reduction when dose increased from 0.0015% to 0.004% ([2]; blacks): statistically significant further reduction | Further IOP reduction when dose increased from 0.0015% to 0.004% ([2]; caucasians (non-blacks)): no further reduction | Subgroup difference in mean IOP between black and non-black patients (analysis of variance) ([2]; travoprost 0.0015% analysis): No statistically significant subgroup differences | Difference in IOP change from baseline between blacks and non-blacks ([2]; travoprost 0.0015% dose): no significant difference | Mean IOP (combined over visit) ([2]; travoprost 0.0015%, black patients, 4 p.m.): 17.8 mmHg | Mean IOP (combined over visit) ([2]; travoprost 0.0015%, black patients, 8 a.m.): 19.6 mmHg | Mean IOP (combined over visit) ([2]; travoprost 0.0015%, black patients, 10 a.m.): 18.4 mmHg | Mean IOP (overall) [2, 3]: 18.6 mmHg | IOP change from baseline [2, 3]: −7.1 mmHg | Mean IOP (combined over visit) ([2]; travoprost 0.0015%, non-black patients, 4 p.m.): 18.2 mmHg | Mean IOP (combined over visit) ([2]; travoprost 0.0015%, non-black patients, 8 a.m.): 19.4 mmHg | Mean IOP (combined over visit) ([2]; travoprost 0.0015%, non-black patients, 10 a.m.): 18.5 mmHg | Mean IOP (overall) [2, 4]: 18.7 mmHg | IOP change from baseline [2, 4]: −7.1 mmHg | Subgroup difference in mean IOP between black and non-black patients (analysis of variance) ([2]; travoprost 0.004% analysis): significant subgroup difference | Subgroup difference in mean IOP, black lower than non-black ([2]; travoprost 0.004%, 4 PM): 1.1 mmHg | Subgroup difference in mean IOP, black lower than non-black ([2]; travoprost 0.004%, 8 AM): 0.8 mmHg | Subgroup difference in mean IOP, black lower than non-black ([2]; travoprost 0.004%, 10 AM): 1.5 mmHg | Mean IOP (combined over visit) ([2]; travoprost 0.004%, black patients, 4 p.m.): 16.8 mmHg | Mean IOP (combined over visit) ([2]; travoprost 0.004%, black patients, 8 a.m.): 18.6 mmHg | Mean IOP (combined over visit) ([2]; travoprost 0.004%, black patients, 10 a.m.): 16.8 mmHg | Mean IOP (overall) [2, 5]: 17.4 mmHg | IOP change from baseline [2, 5]: −8.1 mmHg | Difference in mean IOP, black lower than non-black ([2]; travoprost 0.004%, combined (8 a.m., 10 a.m., and 4 p.m.) results): up to 1.5 mmHg | Mean IOP (combined over visit) ([2]; travoprost 0.004%, non-black patients, 4 p.m.): 18.0 mmHg | Mean IOP (combined over visit) ([2]; travoprost 0.004%, non-black patients, 8 a.m.): 19.3 mmHg | Mean IOP (combined over visit) ([2]; travoprost 0.004%, non-black patients, 10 a.m.): 18.3 mmHg | Mean IOP (overall) [2, 6]: 18.5 mmHg | IOP change from baseline [2, 6]: −7.5 mmHg | Difference in mean IOP, black lower than non-black ([2]; travoprost 0.004%, overall result): 1.1 mmHg
